Experimental data published in patent publication US20230398092A1, “APPLICATION OF SESQUITERPENE LACTONE COMPOUND IN PREPARATION OF DRUGS FOR ALLEVIATING RADIOTHERAPY-INDUCED INJURIES” (ACCENDATECH CO., LTD., priority 2020, published 2023).
Where two headings read alike, the source gives them in different places.

Tests used:
[1] = system: H226 human squamous lung carcinoma cell strain; assay: Selective radiotherapy protection effect (CCK-8), lung cancer cells; assay type: cell-based; conditions: ACT001 10 μM, 0-6 Gy, radiation 1 h after dosing, 48 h, FIG. 5
Experimental: (§1) The culture medium for H226 and BEAS2B cells was DMEM, and the cells were cultured in a cell incubator at 37° C. with 5% CO2.
(§2) Recover of H226 and BEAS2B cells: a cryopreservation tube was taken from liquid nitrogen, placed in water bath at 37° C. to thaw the cryopreservation solution, and centrifuged at 1000 rpm for 5 min.
(§3) The supernatant was discarded, and the cells were resuspended in a complete culture medium and cultured under the condition of 37° C., 5% CO2.
(§4) When 70-80% of the bottom of the culture dish was covered by the cells, the culture medium was discarded. The cells were washed with 2-3 mL of PBS buffer and digested with 1 mL of 0.25% pancreatin (just enough to cover the bottom of the flask). Immediately after the cell became round after being cultured in the incubator for a period of time, a complete culture medium was added to stop the digestion, and the cell suspensions after the digestion were combined and centrifuged at 1000 rpm for 5 min. The supernatant was discarded, and the cells were resuspended in a complete culture medium, gently pipetted, and counted. […]
(§5) Dosing was performed 24 h after the cells were seeded. […] 10 μL of CCK-8 solution (taking care not to create air bubbles in the wells, which would affect the OD readings) was added to each well, and the plate was incubated in the incubator for 1-4 h. The OD value at 450 nm was determined with a microplate reader.

BALB/c mice [2] = assay: Effect of ACT001 on survival of mice subjected to radiotherapy; assay type: in vivo
From the text: (§6) Adult BALB/c mice, 18-19 g, 8 weeks, female, SPF (Beijing) Biotechnology Co., Ltd., animal certificate number: SCXK (Beijing) 2016-0002. The test animals were bred in the common environment of the experimental animal center of the Institute of Radiation Medicine, Chinese Academy of Medical Sciences, with 5 animals in each cage. The padding was autoclaved special padding for mice, and the mice were fed with special sterilized feed, and were free to drink purified water. In the animal laboratory, the temperature was kept at about 25° C., the relative humidity was kept at 40%-70%, and the illumination was provided for 12 h daily.
In a preliminary experiment of radiation dose exploration, mice were subjected to radiation at 8 Gy, 10 Gy, 12 Gy, and 14 Gy, respectively. All animals died 18 days after the radiation. However, the animals in the 8 Gy group survived longer than the other groups, so the radiation dose of 8 Gy was selected for the formal experiment.
3.1 Experimental Procedures • (1) The lethal dose of a single radiation of mice was determined through a preliminary experiment; (2) the mice were randomly grouped by the body weight; • (3) ACT001 was pre-administered for 17 consecutive days, and the state of the animals was observed and the body weight was measured daily; • (4) the mice in groups (3) and (4) were subjected to radiation at a lethal dose after 17 days of the administration, and on the day of radiation, ACT001 was administered 1 h before the radiation; • (5) ACT001 was continuously administered for five weeks after the radiation, and the survival state of the animals was observed and the body weight was measured daily. The survival rate and survival time of mice in each group were calculated.
3.2 Grouping Regimen • (1) Blank control group • (2) ACT001-200 mg/kg group • (3) Radiotherapy-8 Gy group • (4) ACT001-200 mg/kg+radiotherapy-8 Gy group
A total of 4 groups were set in the experiment, with 10 animals in each group.
3.3 Administration Method • ACT001 (dissolved in normal saline) was administered intragastrically once daily, with an interruption once a week; • an equal volume of normal saline was administered intragastrically to the blank control group.
Data were expressed as x±s; statistical analysis among groups was performed using the t-test program in EXCEL software, and the logrank chi-square test method was used to evaluate whether there was statistical significance in each group of dead animals.

[3] = system: BEAS2B human normal lung epithelial cell strain; assay: Selective radiotherapy protection effect on normal cells (CCK-8), normal lung epithelial cells; assay type: cell-based; conditions: ACT001 10 μM, 0-6 Gy, radiation 1 h after dosing, 48 h, FIG. 5
Experimental: as §1, §2, §3, §4, §5

BALB/c mice [4] = assay: Effect of ACT001 on radiation-induced neuronal apoptosis of mice (Tunel staining of whole brain); assay type: in vivo; conditions: ACT001 200 mg/kg intragastrically + brain radiation 2 Gy × 4 or single 4 Gy, day 14, Tunel staining, FIG. 7
From the text: as §6, with “2.3 Experimental Animal and Feeding Conditions • Adult” for “Adult”, “2019-0010.” for “2016-0002.”, “barrier” for “common”, “daily. 3. Experimental procedures and compound treatment” for “daily.”
3.1 Administration Method • ACT001 (dissolved in sterile normal saline) was administered intragastrically once daily; an equal volume of sterile normal saline was administered to the model control group; • The compound for each group was prepared freshly prior to use.
3.2 Experimental Grouping • (1) Model control group • (2) Radiotherapy control group (4 Gy) • (3) ACT001-200 mg/kg group • (4) ACT001-200 mg/kg+4 Gy group • (5) Radiotherapy low-dose control group (2 Gy) • (6) ACT001-200 mg/kg+2 Gy group • 10 animals in each group, 60 animals in total.
The mice were randomly grouped, with 10 mice in each group. […]

[5] = system: U118-MG human brain astroblastoma cell strain; assay: Anti-proliferation activity of ACT001 at different radiation doses (CCK-8); assay type: cell-based; conditions: ACT001 20 μM; for inhibition at 20 µM: Homo sapiens, U-118-MG, U118-MG cells, read-out: Inhibition rate (%) at different radiation doses
Experimental: The culture medium for U118-MG was DMEM, and the cells were cultured in a cell incubator at 37° C. with 5% CO2.
(§7) Recover of U118-MG cells: a cryopreservation tube was taken from liquid nitrogen, placed in water bath at 37° C. to thaw the cryopreservation solution, and centrifuged at 1000 rpm for 5 min. The supernatant was discarded, and the cells were resuspended in a complete culture medium and cultured under the condition of 37° C., 5% CO2.
When 70-80% of the bottom of the culture flask was covered by the cells, the culture medium was discarded by pipetting. The cells were washed with 2-3 mL of PBS buffer and digested with 1-2 mL of 0.25% pancreatin (just enough to cover the bottom of the flask). Immediately after the cell became round after being cultured in the incubator for a period of time, a complete culture medium was added to stop the digestion, and the cell suspensions after the digestion were combined and centrifuged at 1000 rpm for 5 min. The supernatant was discarded, and the cells were resuspended in a complete culture medium, gently pipetted, and counted. The cell density was adjusted to 2500 cells/well, and the cells were seeded into a 96-well plate at 90 μL/well.
Dosing was performed one day after the cells were seeded. Each plate was divided into a blank group, a negative control group and 10 compound groups, with 4-6 duplicate wells set for each group. 10 μL of the compound was added to each well. 3 h later, each well received a corresponding radiation dose. The cells were cultured at 37° C. for 24 h. After that, the culture medium was discarded, a corresponding fresh culture medium was added, and the plate was incubated for 48 h. At the end of incubation, 10 μL of CCK-8 solution (taking care not to create air bubbles in the wells, which would affect the OD readings) was added to each well, and the plate was incubated in the incubator for 1-4 h. The OD value at 450 nm was determined with a microplate reader.
The data were processed with an EXCEL software to solve inhibition rates at different concentrations, and IC50 values were obtained by fitting with SPSS. The mean and standard deviation of the IC50 values obtained three times were solved by SPSS.
Inhibition rate %={1−(OD value of compound well−OD value of blank well)/(OD value of control well−OD value of blank well)}×100%

[6] = system: SYSY human neuroblastoma cell strain; assay: Alleviation of radiation-induced neuronal cell death (CCK-8); assay type: cell-based; conditions: ACT001 1.25-10 μM, 0-10 Gy, radiation 1 h after dosing, 48 h, FIG. 6
Experimental: The culture medium for SYSY cells was DMEM, and the cells were cultured in a cell incubator at 37° C. with 5% CO2.
as §7, with “SYSY” for “U118-MG”
as §4, §5

In the case of `CC1=C2CC[C@@](C)(O)[C@@H]2[C@H]2OC(=O)[C@@H](CN(C)C)[C@@H]2CC1.O=C(O)/C=C/C(=O)O` [ACT001, (3R,3aS,9R,9aS,9bS)-3-((dimethylamino)methyl)-9-hydroxy-6,9-dimethyl-3,3a,4,5,7,8,9,9a-octahydroazuleno[4,5]furan-2(9bH)-one fumarate], the “Protection effect on H226 tumor cells against radiation” value [1] is reported as “no protection effect on H226 tumor cells”, the “Day on which animal death occurred” value (BALB/c mice [2]; ACT001 200 mg/kg + radiotherapy 8 Gy group) is reported as 15 days and the “Survival time compared with the radiotherapy control-8 Gy group” value (BALB/c mice [2]; ACT001 200 mg/kg + radiotherapy 8 Gy, P<0.01) is reported as “significantly prolonged”. The “State and body weight of animals during pre-administration” value (BALB/c mice [2]; ACT001 200 mg/kg intragastrically, 17 consecutive days before radiotherapy) was “in good state with stable body weight”, the “Survival rate (%)” value (BALB/c mice [2]; ACT001 200 mg/kg p.o. × 49 + systemic radiotherapy 8 Gy × 1, BALB/c mice) was 70% and the “Body weight (g) End” value (BALB/c mice [2]; ACT001 200 mg/kg p.o. × 49 + systemic radiotherapy 8 Gy × 1, x ± s) was 18.5 ± 2.9 g. The “Survival rate (%)” value (BALB/c mice [2]; ACT001 200 mg/kg p.o. × 49, no radiotherapy, BALB/c mice) was 100%, the “Body weight (g) End” value (BALB/c mice [2]; ACT001 200 mg/kg p.o. × 49, no radiotherapy, x ± s) was 19.1 ± 3.0 g and the “Effect on radiotherapy-induced injuries of BEAS2B cells” value [3] was “significantly reduce radiotherapy-induced injuries of BEAS2B cells”. For the same compound, the “Apoptosis of neurons in the cerebral cortex compared with radiation-only groups” value (BALB/c mice [4]) was “significantly reduce the apoptosis of neurons”, the “Effect on the inhibition by radiation of the proliferation of U118-MG cells” value ([5]; FIG. 1) was “significantly enhance the inhibition effect of the radiation group” and the inhibition at 20 µM ([5]; 0 Gy) was 19.2%. For the same compound, the inhibition at 20 µM ([5]; 6 Gy) was 22.8%, the inhibition at 20 µM ([5]; 10 Gy) was 33.8% and the inhibition at 20 µM ([5]; 20 Gy) was 36.1%. For the same compound, the inhibition at 20 µM ([5]; 50 Gy) was 75.6% and the “Effect on injuries of SYSY cells caused by radiation” value [6] was “significantly reduce the injuries of SYSY cells caused by radiation”.
